{
  "source": "patent US20240049723A1",
  "about": "“PLANT GROWTH REGULATOR OR METHOD FOR PROMOTING PLANT GROWTH” (Kureha Corporation, priority 2021, published 2024)",
  "assay_type_in_all_cases": "in vivo",
  "key": {"wheat": {"tested_on": "wheat", "experiment": "Evaluation Example 3: plant height of wheat, petri dish", "details": "EGT concentration 1 mM; 7th day after seeding", "experimental": "(§1) In a 9 cm petri dish on which filter paper was spread, 10 mL of the plant growth regulator was added. Ten seeds of wheat or rapeseed were sown per one petri dish. In a thermostatic chamber set at room temperature of 25° C., the light period was 16 hours and the dark period was 8 hours. The light conditions were set using a fluorescent lamp (PLANT FLEC, 40 W LED fluorescent lamp for plant growth, electric bulb color, available from Nippon Medical and Chemical Instruments Co., Ltd.) such that the light intensity was 5000 lx in the central part under irradiation with the fluorescent lamp.\n(§2) As the plant growth regulator, the hot water extraction product prepared in Production Example 1 was used. Furthermore, for comparison, a plant growth regulator formed from 1 mM of ergothioneine aqueous solution was used.\n(§3) The plant height of the wheat or rapeseed on the 7th day after seeding was evaluated."}, "[1]": {"tested_on": "Arabidopsis thaliana (Col-0)", "experiment": "Evaluation Example 6: Arabidopsis thaliana treated with Pseudozyma siamensis extracts from various extraction methods", "details": "EGT concentration 0.1 mM", "experimental": "(§4) One individual Arabidopsis thaliana (Col-0) was sown in a plastic pot having a diameter of 60 mm and a height of 55 mm. Plastic deep dishes each having a diameter of 160 mm and a height of 28 mm were prepared, and six pots were respectively placed therein. As soil, 45 mL of vermiculite, 22.5 mL of granular soil (Kumiai horticultural soil), and 22.5 mL of vermiculite were placed in the pot in this order.\n(§5) In a growth chamber set at room temperature of 22° C., the light period was 16 hours and the dark period was 8 hours. The light conditions were set such that the light intensity was 5000 lx in the central part under irradiation with the fluorescent lamp. Water supply was conducted from the bottom, and the water level was set at about 5 mm. Chemical treatment was started […]. More specifically, on the 8th, 10th, 12th, and 14th days after seeding, 50 mL of the plant growth regulator was added instead of water supply.\n(§6) As the plant growth regulator, various extracts of Pseudozyma siamensis obtained in Production Example 2 were used. Furthermore, for comparison, a plant growth regulator formed from 0.1 mM of ergothioneine aqueous solution was used.\nOn the 95th day after seeding, seeds were harvested, and the seed yield was evaluated."}, "tomato (Micro Tom)": {"tested_on": "tomato (Micro Tom)", "experiment": "Evaluation Example 4: number of flowers of tomato", "details": "EGT concentration 0.1 mM; 64th day after seeding", "experimental": "In a plastic pot having a square of 120 mm length and a height of 100 mm, 1 L of granular soil (Kumiai horticultural soil) was placed, and one individual tomato (Micro Tom) was sown in a pot.\n(§7) In a thermostatic chamber set at room temperature of 25° C., the light period was 16 hours and the dark period was 8 hours. The light conditions were set using a fluorescent lamp (PLANT FLEC, 40 W LED fluorescent lamp for plant growth, electric bulb color, available from Nippon Medical and Chemical Instruments Co., Ltd.) such that the light intensity was 5000 lx in the central part under irradiation with the fluorescent lamp. Water supply was conducted from the bottom, and the water level was set at about 5 mm. Chemical treatment was started 4 weeks after seeding. More specifically, on the 25th, 27th, 29th, 31st, 33rd, 35th, and 37th days after seeding, 50 mL of the plant growth regulator was added instead of water supply.\n(§8) As the plant growth regulator, the hot water extraction product of Pseudozyma siamensis (C-EGT-PSI) prepared in Production Example 1 was used. Furthermore, for comparison, a plant growth regulator formed from 0.1 mM of ergothioneine aqueous solution was used.\nOn the 64th day after seeding, the number of flowers was evaluated."}, "rapeseed": {"tested_on": "rapeseed", "experiment": "Evaluation Example 3: plant height of rapeseed, petri dish", "details": "EGT concentration 1 mM; 7th day after seeding", "experimental": "as §1, §2, §3"}, "radish (Akamaru Hatsuka)": {"tested_on": "radish (Akamaru Hatsuka)", "experiment": "Evaluation Example 5: underground part weight of radish", "details": "EGT concentration 0.1 mM; 28th day after seeding", "experimental": "In a plastic pot having a diameter of 100 mm and a height of 135 mm, 600 mL of granular soil (Kumiai horticultural soil) was placed, and one individual radish (Akamaru Hatsuka) was sown in a pot.\nThe radish was managed in a greenhouse set at room temperature of 25° C. Chemical treatment was started 2 weeks after seeding. More specifically, on the 10th, 12th, 14th, and 16th days after seeding, 50 mL of the plant growth regulator was added.\nas §8\nOn the 28th day after seeding, the underground part weight was evaluated."}, "[2]": {"tested_on": "Arabidopsis thaliana (Col-0)", "experiment": "Evaluation Example 2: seed yield of Arabidopsis thaliana, C-EGT-DCH", "details": "EGT concentration 0.1 mM; harvested 87th day after seeding", "experimental": "as §4, §5\nAs the plant growth regulator, the hot water extraction product of Dirkmeia churashimaensis (C-EGT-DCH) prepared in Production Example 1 was used. Furthermore, for comparison, a plant growth regulator formed from 0.1 mM of ergothioneine aqueous solution was used.\nOn the 87th day after seeding, seeds were harvested, and the seed yield was evaluated."}, "[3]": {"tested_on": "Arabidopsis thaliana (Col-0)", "experiment": "Evaluation Example 1: seed yield of Arabidopsis thaliana, hot water extraction products", "details": "EGT concentration 1 mM, harvested 89th day after seeding", "experimental": "as §4\nas §7, with “of 22°” for “of 25°”, “started 2” for “started 4”, “the 8th, 10th, 12th,” for “the 25th, 27th, 29th, 31st, 33rd, 35th,”, “and 14th” for “and 37th”\nAs the plant growth regulator, the hot water extraction product prepared in Production Example 1 was used. […]\nOn the 89th day after seeding, seeds were harvested, and the seed yield was evaluated."}, "[4]": {"tested_on": "Arabidopsis thaliana (Col-0)", "experiment": "Evaluation Example 7: Arabidopsis thaliana treated with Pseudozyma siamensis extracts from various extraction methods", "details": "EGT concentration 0.1 mM; 93rd day after seeding", "experimental": "as §4, §5, §6\nOn the 93rd day after seeding, the plant height, the aboveground part weight, and the seed yield were evaluated."}, "[5]": {"details": "harvested 95th day after seeding"}},
  "data": [
    {"smiles": "C[N+](C)(C)[C@@H](Cc1c[nH]c(=S)[nH]1)C(=O)[O-]", "note": "[EGT, ergothioneine]", "values": [
      {"measurement": "Wheat plant height ratio to EGT", "setting": "wheat", "value": 1.0},
      {"measurement": "Wheat plant height ratio to untreated control", "setting": "wheat", "value": 1.1},
      {"measurement": "Plant height ratio to EGT", "setting": "[1]; 95th day after seeding", "value": 1.0},
      {"measurement": "Plant height ratio to untreated control", "setting": "[1]; 95th day after seeding", "value": 1.1},
      {"measurement": "Seed yield ratio to EGT", "setting": "[1]; [5]", "value": 1.0},
      {"measurement": "Seed yield ratio to untreated control", "setting": "[1]; [5]", "value": 1.2},
      {"measurement": "Flower number ratio to EGT", "setting": "tomato (Micro Tom)", "value": 1.0},
      {"measurement": "Flower number ratio to untreated control", "setting": "tomato (Micro Tom)", "value": 1.3},
      {"measurement": "Rapeseed plant height ratio to EGT", "setting": "rapeseed", "value": 1.0},
      {"measurement": "Rapeseed plant height ratio to untreated control", "setting": "rapeseed", "value": 1.1},
      {"measurement": "Underground part weight ratio to EGT", "setting": "radish (Akamaru Hatsuka)", "value": 1.0},
      {"measurement": "Underground part weight ratio to untreated control", "setting": "radish (Akamaru Hatsuka)", "value": 1.2},
      {"measurement": "Seed yield ratio to EGT", "setting": "[2]", "value": 1.0},
      {"measurement": "Seed yield ratio to untreated control", "setting": "[2]", "value": 1.3},
      {"measurement": "Seed yield ratio to EGT", "setting": "[3]; compared with 1 mM EGT", "value": 1.0},
      {"measurement": "Seed yield ratio to untreated control", "setting": "[3]; 50 mL on 8th, 10th, 12th, 14th days", "value": 1.2},
      {"measurement": "Aboveground part weight ratio to EGT", "setting": "[4]", "value": 1.0},
      {"measurement": "Aboveground part weight ratio to untreated control", "setting": "[4]", "value": 1.1},
      {"measurement": "Plant height ratio to EGT", "setting": "[4]", "value": 1.0},
      {"measurement": "Plant height ratio to untreated control", "setting": "[4]", "value": 1.1},
      {"measurement": "Seed yield ratio to EGT", "setting": "[4]", "value": 1.0},
      {"measurement": "Seed yield ratio to untreated control", "setting": "[4]", "value": 1.3}
    ]}
  ]
}
